The subject of experiment [1] is BaF3 PIM1 cells. Put plainly: In vitro cell proliferation potency assay, BaF3 transfected with PIM1 (Cell Titer Glo). The class given is cell-based, murine. The following applies: Mus musculus, incubated overnight, read-out: Prolif BaF3 PIM1 (EC50). From the text: (§1) BaF3 is a murine interleukin-3 dependent pro-B cell line, useful as a model system for assessing both the potency and downstream signaling of kinase oncogenes (“Ba/F3 cells and their use in kinase drug discovery”, Warmuth, M, et al, (January 2007) Current Opinion in Oncology, Vol 19(1):55-60). BaF3 parental line was obtained from the DSMZ repository. BaF3 lines transfected with PIM1 or PIM2 were generated. Mouse IL-3 was purchased from R&D Systems. G418 was purchased from Clontech. Media for BaF3 parental line contained RPMI, 10% FBS, 2 mM L-Glutamine, 2 ng/mL mIL-3. Media for BaF3 PIM1 & 2 lines contained RPMI, 10% FBS, 2 mM L-Glutamine, […]. Media for MM1.S (multiple myeloma cells) line contained RPMI, 10% FBS, 2 mM L-Glutamine.
(§2) Parental cells, BaF3 PIM1 cells, BaF3 PIM2 cells, and MM1.S (multiple myeloma) cells were seeded at 2 k/well, 5 k/well, 5 k/well, and 10 k/well respectively, in a 384-well plate, at 45 μL/well. Test compound was added at 5 μL/well. BaF3 cells (parental and transfected) were incubated overnight, while MM1.S cells were incubated for 72 hours at 37° C., 5% CO2. CELL TITER GLO® Reagent (Promega) was added at 50 μL/well, the plates were incubated for 30 minutes, and their luminescence read on an HT Analyst. IC50/EC50 values for the test compound were calculated.

Experiment [2] addresses T1, Full-length human PIM-1 (Homo sapiens, UniProt P11309).
T1 construct: Full-length human PIM-1 was expressed and purified; made in house
Description: Biochemical assay for inhibitors of PIM-1 kinase activity (trans-phosphorylation, Dowex resin, 33P-ATP). The conditions noted are these: ATP 200 μM, enzyme 1 nM, Aktide 25 μM. As for the experimental part:
Biochemical assay for inhibitors of PIM-1 kinase activity
The inhibitory activity of putative kinase inhibitors and the potency of selected compounds were determined using a trans-phosphorylation assay.
Specific peptide or protein substrates are trans-phosphorylated by their specific ser-thr or tyr kinase in the presence of ATP traced with ^33P-γ-ATP, and in the presence of their own optimal buffer and cofactors.
At the end of the phosphorylation reaction, more than 98% unlabeled ATP and radioactive ATP is captured by an excess of the ion exchange Dowex® resin; the resin then settles down to the bottom of the reaction plate by gravity.
Supernatant is subsequently withdrawn and transferred into a counting plate, then evaluated by β-counting.
The buffer for PIM-1 assay was composed of HEPES 50 mM, at pH 7.5, with 10 mM MgCl2, 1 mM DTT, 3 μM NaVO3, and 0.2 mg/ml BSA
Full-length human PIM-1 was expressed and purified as described in Bullock A N, et al., J. Biol. Chem. 2005, 280, 41675-82.
1.7 μM PIM1 was incubated 1 hour RT at 28° C. in the presence of 125 μM ATP
ATP concentration: 200 μM
Enzyme concentration: 1 nM
Substrate concentration Aktide (Chemical Abstract Service Registry Number 324029-01-8): 25 μM
The test mix consisted of:
1) 3× Enzyme mix (done in Kinase Buffer 3×), 5 μL/well
2) 3× substrate and ATP mix (done in ddH2O), together with ^33P-γ-ATP, 5 μL/well
3) 3× test compounds (diluted into ddH2O—3% DMSO)-5 μL/well
For IC50 determination, test compounds are received as a 1 mM solution in 100% DMSO and distributed into 96-well plates: compounds are then plated into the first column of a new 96-well plate (A1 to G1), 100 μl/well.
An automated station (Biomek FX®, Beckman) is used for serial dilutions, producing 1:3 dilutions in 100% DMSO, from line A1 to A10, for all the compounds in the column. Moreover, 4-5 copies of daughter plates are prepared by reformatting 5 μL of this first set of 100% DMSO dilution plates into 384-deep well plates: one copy of these serial dilution plates with the test compounds is thawed on the day of study, reconstituted at the working concentration (3-fold the final concentration) with 162 μL/well of water and used for IC50 determination assays. In a standard experiment, the highest concentration (3×) of compounds is typically 30 μM, while the lowest one is typically 1.5 nM.
Each 384-well plate generates at least one curve of the standard inhibitor staurosporine and reference wells (total enzyme activity vs. no enzymatic activity) for evaluation of Z′ and signal to background (S/B) ratio.
384-well plates, V bottom (test plates) are prepared with 5 μl of compound diluted as previously described (3×) and then placed onto a PlateTrak® 12 robotized station (Perkin Elmer; the robot has one 384-tip pipetting head for assay start, plus one 96-tip head for dispensing resin) together with one reservoir for Enzyme mix (3×) and one for ATP mix (3×).
Data are analyzed by an internally customized version of the “Assay Explorer®” SW package, which provides sigmoidal fitting of the ten-dilution curves for IC50 determination in secondary assay/hit confirmation routines.

Experiment [3] relates to BaF3 parental line. Description: In vitro cell proliferation potency assay, BaF3 parental line with IL-3 (Cell Titer Glo). The class given is cell-based, murine. The conditions noted are these: Mus musculus; BaF3 parental cells with mIL-3, incubated overnight; read-out: Prolif BaF3 IL3 (EC50).
Excerpt: as §1, §2
In general terms: Cellular ATP, detected with luciferase, serves as a proxy for viable cell number.

Experiment [4] deals with MV-4-11 (biphenotypic B myelomonocytic leukemia) cells. Put plainly: In vitro cell proliferation assay (CellTiter-Glo). The class given is cell-based. The following applies: Homo sapiens, MV4-11, antiproliferative activity, 72 hours. As for the experimental part: In Vitro Cell Proliferation Assay:
MV-4-11 (biphenotypic B myelomonocytic leukemia) cells (1250 cells/well) were seeded in white 384 well-plates in complete medium (RPMI 1640 or EMEM plus 10% Fetal bovine serum) and treated with compounds dissolved in 0.1% DMSO, 24 h after seeding. The cells were incubated at 37° C. and 5% CO2 and after 72 hours the plates were processed using CellTiter-Glo® assay (Promega) following the manufacturer's instruction. CellTiter-Glo® is a homogenous method based on the quantification of the ATP present, an indicator of metabolically active cells. ATP is quantified using a system based on luciferase and D-luciferin resulting into light generation. The luminescent signal is proportional to the number of cells present in culture.
Briefly 25 μl/well reagent solution was added to each wells and after 5 minutes shacking microplates were red by Envision® (PerkinElmer) luminometer. The luminescent signal was proportional to the number of cells present in culture.
Inhibitory activity was evaluated comparing treated versus control data using Assay Explorer (MDL) program. IC50 was calculated using sigmoidal interpolation curve.

Experiment [5] deals with T2, Full-length human PIM-2 (Homo sapiens, UniProt Q9P1W9).
T2 construct: Full-length human PIM-2 was expressed and purified; made in house
Description: PIM-2 kinase inhibition assay: Dowex technique. The class given is biochemical. The conditions noted are these: ATP 4 μM, enzyme 1.5 nM, Aktide 5 μM. Here is the method: Method for PIM-2 Kinase Inhibition Assay: Dowex Technique
The buffer for PIM-2 assay was composed of HEPES 50 mM, at pH 7.5, with 1 mM MgCl2, 1 mM DTT, 3 μM Na3VO4, and 0.2 mg/ml BSA
Full-length human PIM-2 was expressed and purified as described in Fedorov O, et al. (2007) PNAS 104, 51, 20523-28.
Assay Conditions (Final Concentrations):
Enzyme concentration=1.5 nM
Aktide substrate (Chemical Abstract Service Registry Number 324029-01-8)=5 μM
See above: same procedure as described for PIM-1.

Experiment [6] relates to phosphorylation of BAD at Ser112 by PIM kinases. Put plainly: Western blot of phospho-BAD (Ser112) in MV-4-11 cells. The class given is cell-based, human. The conditions noted are these: different concentrations, 3 hours, compared to DMSO treated cells, FIG. 2. Here is the method: To further establish that the cytotoxicity of the compounds of the present invention resulted from the inhibition of PIM kinases, we examined the phosphorylation of the pro-apoptotic protein BAD by PIM kinases in the presence or absence of PIM inhibitors in MV-4-11 leukemia cell lines.
MV-4-11 cells were plated in 6 well plates at 1.5×10^6 cells/ml and treated with different concentrations of PIM-inhibitors for 3 hours. Cells were harvested, washed with PBS buffer and lysed with lysis buffer (2% SDS, 100 mM Tris ph 7.5, 1:100 Phosphatase Inhibitor Cocktail 1 (SIGMA) and 1:100 Phosphatase Inhibitor Cocktail 2(SIGMA) and Complete Protease Inhibitor (Roche). The protein concentration in the lysates was quantified using the BCA Protein Assay Kit (Pierce). Equal amounts of protein were loaded onto 4-12% gradient Tri-glycine gel for SDS-PAGE analysis. Then the proteins were transferred to PVDF membranes (Millipore) for Western Blotting. Membranes were probed with the antibody for phospho-Bad (Ser112) (Cell Signaling Technologies).
For orientation: Immunoblotting shows a protein as a band on a membrane.

T2 sequence (Q9P1W9 whole entry): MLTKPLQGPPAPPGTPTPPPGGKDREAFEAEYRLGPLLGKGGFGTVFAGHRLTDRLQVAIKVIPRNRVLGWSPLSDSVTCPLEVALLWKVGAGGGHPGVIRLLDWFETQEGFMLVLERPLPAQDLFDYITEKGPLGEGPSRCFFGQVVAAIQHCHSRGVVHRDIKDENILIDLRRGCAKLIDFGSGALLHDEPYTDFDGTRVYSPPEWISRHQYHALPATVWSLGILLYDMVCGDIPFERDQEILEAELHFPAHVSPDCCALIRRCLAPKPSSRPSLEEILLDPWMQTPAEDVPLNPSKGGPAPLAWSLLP
T1 sequence (P11309 whole entry): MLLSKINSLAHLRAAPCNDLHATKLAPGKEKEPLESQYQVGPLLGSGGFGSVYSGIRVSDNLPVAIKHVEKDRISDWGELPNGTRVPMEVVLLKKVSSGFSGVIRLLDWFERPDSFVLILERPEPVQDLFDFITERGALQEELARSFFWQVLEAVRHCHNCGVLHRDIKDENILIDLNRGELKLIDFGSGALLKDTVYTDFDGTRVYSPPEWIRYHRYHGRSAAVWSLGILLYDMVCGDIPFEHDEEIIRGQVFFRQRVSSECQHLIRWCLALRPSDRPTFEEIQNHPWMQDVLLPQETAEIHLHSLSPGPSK

Turning to `CSc1ncc2ccc3c(C(N)=O)nn(C4CCC(N)CC4)c3c2n1` (centres unmarked) [Compound 93, 1-(4-aminocyclohexyl)-8-(methylsulfanyl)-1H-pyrazolo[4,3-h]quinazoline-3-carboxamide], the EC50 – broadly, the concentration at which the effect is half-maximal – came to 44 nM in experiment [1] and 7900 nM in experiment [3]. In addition, the IC50 (usually the midpoint of a concentration-inhibition curve) in experiment [2] was determined as 1 nM; in experiment [4], 448 nM; in experiment [5] it was 1 nM.

For `CN1CCN(c2ccc(Oc3ncc4ccc5c(C(N)=O)nn(C(C)(C)C)c5c4n3)cc2)CC1` [Compound 51, 1-tert-butyl-8-[4-(4-methylpiperazin-1-yl)phenoxy]-1H-pyrazolo[4,3-h]quinazoline-3-carboxamide], the EC50 in experiment [1] was 210 nM; in experiment [3] it was 9300 nM. The figures for the IC50 in experiment [2], in experiment [4] and in experiment [5] were 4 nM, 192 nM and 15 nM, respectively.

As to `CN1CCN(c2ccc(Oc3ncc4ccc5c(C(N)=O)nn(C)c5c4n3)c(Br)c2)CC1` [Compound 29, 8-[2-bromo-4-(4-methylpiperazin-1-yl)phenoxy]-1-methyl-1H-pyrazolo[4,3-h]quinazoline-3-carboxamide], the results for the IC50 in experiment [2], in experiment [4] and in experiment [5] were 21 nM, 758 nM and 2400 nM, respectively.

With `CSc1ncc2c(n1)-c1c(c(C(N)=O)nn1C1CCNCC1)CC2` [Compound 72, 8-(methylsulfanyl)-1-(piperidin-4-yl)-4,5-dihydro-1H-pyrazolo[4,3-h]quinazoline-3-carboxamide], the IC50 stood at 270 nM in experiment [2], 1780 nM in experiment [4] and 313 nM in experiment [5].

With `CC(=O)c1cc(N2CCNCC2)ccc1Oc1ncc2ccc3c(C(N)=O)nn(C)c3c2n1` [Compound 38, 8-[2-acetyl-4-(piperazin-1-yl)phenoxy]-1-methyl-1H-pyrazolo[4,3-h]quinazoline-3-carboxamide], the IC50 in experiment [2] is 20 nM; in experiment [4], 308 nM; in experiment [5], 527 nM.

Regarding `CSc1ncc2ccc3c(C(N)=O)nn(C(C)(C)C)c3c2n1` [Compound 85, 1-tert-butyl-8-(methylsulfanyl)-1H-pyrazolo[4,3-h]quinazoline-3-carboxamide], the EC50 was found to be 310 nM in experiment [1] and 13000 nM in experiment [3]. In addition, the IC50 turned out to be 1 nM in experiment [2], 103 nM in experiment [4] and 2 nM in experiment [5]. In addition, in experiment [6], the “levels of pBAD (s112) by western blot” value was “dose dependent reduction”.

Take `CSc1ncc2ccc3c(C(N)=O)nn(CCO)c3c2n1` [Compound 1, 1-(2-hydroxyethyl)-8-(methylsulfanyl)-1H-pyrazolo[4,3-h]quinazoline-3-carboxamide]: the 50% inhibitory concentration (IC50) was determined as 50 nM in experiment [2], 992 nM in experiment [4] and 221 nM in experiment [5].

In the case of `CSc1ncc2ccc3c(C(N)=O)nn([C@H]4C[C@H](CO)C4)c3c2n1` [Compound 105, 1-[trans-3-(hydroxymethyl)cyclobutyl]-8-(methylsulfanyl)-1H-pyrazolo[4,3-h]quinazoline-3-carboxamide], the half-inhibitory concentration (IC50) is 3 nM in experiment [2], 16.8 nM in experiment [4] and 14 nM in experiment [5].

On to `CSc1ncc2ccc3c(C(N)=O)nn(CC4CCCNC4)c3c2n1` (centres unmarked) [Compound 94, 8-(methylsulfanyl)-1-(piperidin-3-ylmethyl)-1H-pyrazolo[4,3-h]quinazoline-3-carboxamide], for which the figures for the IC50 in experiment [2], in experiment [4] and in experiment [5] were 80 nM, 534 nM and 311 nM, respectively.

As to `COc1ncc2ccc3c(C(N)=O)nn(C4CCNCC4)c3c2n1` [Compound 97, 8-methoxy-1-(piperidin-4-yl)-1H-pyrazolo[4,3-h]quinazoline-3-carboxamide], the values for the IC50 in experiment [2], in experiment [4] and in experiment [5] were 154 nM, 294 nM and 271 nM, respectively.

`NC(=O)c1nn(C2CCC(N)CC2)c2c1ccc1cnc(-c3ccsc3)nc12` (centres unmarked) [Compound 112, 1-(4-aminocyclohexyl)-8-(thiophen-3-yl)-1H-pyrazolo[4,3-h]quinazoline-3-carboxamide]: the figures for the EC50 in experiment [1] and in experiment [3] were 1300 nM and 2000 nM, respectively. Further, the IC50 stood at 300 nM in experiment [2] and 43 nM in experiment [5].

For the compound `CSc1ncc2ccc3c(C(N)=O)nn(C4CCOCC4)c3c2n1` [Compound 104, 8-(methylsulfanyl)-1-(tetrahydro-2H-pyran-4-yl)-1H-pyrazolo[4,3-h]quinazoline-3-carboxamide], the values for the 50% inhibitory concentration (IC50) in experiment [2], in experiment [4] and in experiment [5] were 14 nM, 185 nM and 35 nM, respectively.

(Values after patent publication US8541576B2, “Substituted pyrazolo-quinazoline derivatives as kinase inhibitors” (Nerviano Medical Sciences SRL, priority 2010, dated 2013).)
